Measured values reported in paper PMC12446476 (Nature Communications, 2025).
Converted amounts (≈) assume the structure as drawn. Read-outs that look alike come from different tables or passages of the source.

Assays:
[1] = tested on: N. gonorrhoeae; test: MIC determination, agar dilution (CLSI); type: cell-based, Neisseria gonorrhoeae; settings: for MIC: Neisseria gonorrhoeae
From the text: The 2024 WHO N. gonorrhoeae reference strains were used for quality control. Only whole MIC doubling dilutions are reported. Clinical breakpoints or the epidemiological cutoff (ECOFF, to indicate azithromycin resistance) from EUCAST (v14.0, https://www.eucast.org/clinical_breakpoints) were used to classify isolates as antimicrobial susceptible or resistant. […] Two times the standard inoculum defined by CLSI was used to establish consistent growth in untreated control samples for some strains. In vitro time-kill assays were performed according to CLSI guidelines[65] using Columbia Broth (BD Difco) supplemented with 1% IsoVitaleX Enrichment (BD). Viable bacterial counts were generated by plating 10-fold serially diluted samples on GC agar plates containing 1% IsoVitaleX Enrichment (BD).

[2] = tested on: S. aureus ATCC 29213; test: S. aureus neutropenic murine thigh infection model; type: in vivo, mouse; settings: S. aureus ATCC 29213, daily dose, 300 µg/mL ceftriaxone
Procedure: The S. aureus neutropenic murine thigh infection model was performed in accordance with the Guide for Care and Use of Laboratory Animals[75]. Animal rooms were maintained at a temperature range of 20–24 °C and humidity between 30% and 70%, with 12 h light/dark cycles. Female ICR mice (BioLASCO Taiwan Co., Ltd.) were rendered neutropenic via IP injection of cyclophosphamide four days before infection (150 mg/kg) and again one day before infection (100 mg/kg). Animals were anaesthetised with isoflurane (3–5%), then inoculated intramuscularly with S. aureus ATCC 29213 (~1 × 10^5 CFU/mouse). […] Animals were sacrificed via CO2 asphyxiation at either 2 h (baseline), 26 and/or 50 h post-infection. Thigh tissues were harvested and homogenised in 3 mL sterile PBS (pH 7.4). Bacterial burdens were determined by performing 10-fold serial dilutions and plating on nutrient agar plates.

[3] = tested on: intracellular N. gonorrhoeae; test: Intracellular killing in HeLa229 cells; type: cell-based, Neisseria gonorrhoeae; settings: within 24 h
Procedure: Intracellular killing was assessed within HeLa229 cells (European Collection of Authenticated Cell Cultures, London, UK) that were seeded at ~3 × 10^5 cells/mL and grown to 70–80% confluence in RPMI-glutamine media supplemented with 10% (v/v) heat-inactivated fetal bovine serum (FBS, Gibco, MA, USA). Cells were incubated at 37 °C with 5% CO2 for 24 h, then washed with serum-free RPMI-1640 prior to infection. N. gonorrhoeae was scraped from agar plates and resuspended in Dulbecco’s Phosphate Buffered Saline (DPBS, Sigma-Aldrich), pelleted, then resuspended in RPMI with 2% FBS. Bacterial suspensions were used to infect HeLa229 cells at a multiplicity of infection of 100:1. Plates were briefly centrifuged (500 × g for 5 min), then incubated for one hour. This incubation and all subsequent incubations were performed at 37 °C with 5% CO2. Non-adherent cells were removed by washing with serum-free RPMI, and the remaining extracellular bacteria were killed via resuspension in RPMI-glutamine supplemented with 2% FBS and 200 μg/mL gentamycin and incubation for one hour. […] Azithromycin-treated samples were included for control/comparison. […] Samples were diluted and plated onto chocolate II agar for viable bacteria quantification. Intracellular killing assays were performed at Microbiologics, Kalamazoo, MI, USA, using a method adapted from previous studies[68],[69].

CO/N=C(\C(=O)N[C@@H]1C(=O)N2C(C(=O)O)=C(CSc3nc(=O)c(=O)[nH]n3C)CS[C@H]12)c1csc(N)n1 [Ceftriaxone, reference compound]
susceptibility of all isolates ([1]; 100 contemporary clinical N. gonorrhoeae isolates, EUCAST): susceptible | MIC ([1]; ATCC700825, ATCC 700825, mode of multiple measures, read-out: MIC): 0.002 µg/mL (≈ 0.00361 µM) | MIC ([1]; WHO H, agar dilution, read-out: MIC): 0.25 µg/mL (≈ 0.451 µM) | MIC ([1]; WHO K, agar dilution, read-out: MIC): 0.06 µg/mL (≈ 0.108 µM) | MIC ([1]; WHO L, agar dilution, read-out: MIC): 0.25 µg/mL (≈ 0.451 µM) | MIC ([1]; WHO Q, agar dilution, read-out: MIC): 0.5 µg/mL (≈ 0.902 µM) | MIC ([1]; WHO R, agar dilution, read-out: MIC): 0.5 µg/mL (≈ 0.902 µM) | MIC ([1]; WHO S2, agar dilution, read-out: MIC): < 0.008 µg/mL | MIC ([1]; WHO V, agar dilution, read-out: MIC): 0.06 µg/mL (≈ 0.108 µM) | MIC ([1]; WHO X-07 (CIP-R, CRO-R), mode of multiple measures, read-out: MIC): 2 µg/mL (≈ 3.61 µM) | MIC ([1]; WHO Y, agar dilution): 1 µg/mL (≈ 1.8 µM) | AMR phenotype (susceptibility category, EUCAST) ([1]; WHO F): S | AMR phenotype (susceptibility category, EUCAST) ([1]; WHO H): R | AMR phenotype (susceptibility category, EUCAST) ([1]; WHO K): S | AMR phenotype (susceptibility category, EUCAST) ([1]; WHO L): R | AMR phenotype (susceptibility category, EUCAST) ([1]; WHO M): S | AMR phenotype (susceptibility category, EUCAST) ([1]; WHO O): S | AMR phenotype (susceptibility category, EUCAST) ([1]; WHO P): S | AMR phenotype (susceptibility category, EUCAST) ([1]; WHO Q): R | AMR phenotype (susceptibility category, EUCAST) ([1]; WHO R): R | AMR phenotype (susceptibility category, EUCAST) ([1]; WHO S2): S | AMR phenotype (susceptibility category, EUCAST) ([1]; WHO U): S | AMR phenotype (susceptibility category, EUCAST) ([1]; WHO V): S | AMR phenotype (susceptibility category, EUCAST) ([1]; WHO X): R | AMR phenotype (susceptibility category, EUCAST) ([1]; WHO Y): R | AMR phenotype (susceptibility category, EUCAST) ([1]; WHO Z): R | Mean Diff. 0h vs. treatment, log10 CFU ([2]; 24h): 1.71 | Mean Diff. 0h vs. treatment, log10 CFU ([2]; 48h): 2.684

CC[C@H]1OC(=O)[C@H](C)[C@@H](O[C@H]2C[C@@](C)(OC)[C@@H](O)[C@H](C)O2)[C@H](C)[C@@H](O[C@@H]2O[C@H](C)C[C@H](N(C)C)[C@H]2O)[C@](C)(O)C[C@@H](C)CN(C)[C@H](C)[C@@H](O)[C@]1(C)O [Azithromycin]
reduction of intracellular bacteria ([3]; ATCC 49226 in HeLa229 cells): ≥ 3.3 log10CFU/mL | reduction of intracellular bacteria ([3]; WHO X in HeLa229 cells): ≥ 2.8 log10CFU/mL
